# Test results: article PMC8222713, “Variation of Two S3b Residues in KV4.1–4.3 Channels Underlies Their Different Modulations by Spider Toxin κ-LhTx-1” (Frontiers in Pharmacology, 2021)
# Where a SMILES comes first, the peptide text is derived from it. Bridges are numbered along the chain shown (N, C = ends).
# Assays:
# KV4.1/K283D mutant = experiment: Whole-cell patch clamp, KV4.1/K283D in CHO-K1 cells; format: cell-based, mouse
# Description: (§1) The cDNA of hKV1.1, hKV1.3, rKV1.4, hKV1.5, rKV2.1, hKV3.1–3.4, mKV4.1, rKV4.2, and rKV4.3 were subcloned in the eukaryotic expression vector pCDNA3.1 or pCMV-blank. Channel mutants were made by a site-directed mutation method. Briefly, a pair of oppositely directed primers with 15 bp overlap at their 5′ ends and the designed mutation site were used to amplify the parental channel plasmid, then the PCR mix was treated with DpnI to remove the template. 10 μL digestion mix was directly used to transform 100 μL DH5α chemical competent cells. The correct mutation made by this procedure was finally confirmed by DNA sequencing. CHO-K1 cells (ATCC® CCL-61™) were grown in DMEM-F12 mixed medium (1:1) supplemented with 10% FBS and maintained in standard conditions (saturated humidity, 37°C, 5% CO2). Channel plasmid was co-transfected with pEGFP-N1 (encodes the green fluoresence protein) into CHO-K1 cells using lipofectamine 2000 following the manufacturer’s instructions. 4–6 h after transfection, cells were seeded onto poly-lysine (PLL) coated coverslips, and 24–36 h later, transfected cells were ready for patch-clamp analysis. It should be note that KV4.2 and its mutants were also co-expressed with hKChIP1 to promote their functional expressions.
# (§2) Whole-cell patch clamp recording was performed in an electrophysiology platform equipped with MultiClamp 700B amplifier and Axon Digidata 1550 AD/DA convertor (Axon Instruments, Irvine, CA, United States). Data were acquired using the pClamp software (Axon Instruments, Irvine, CA, United States). All experiments were performed at room temperature. The bath solution contains (in mM): 140 NaCl, 5 KCl, 1 MgCl2, 2 CaCl2, 10 glucose, and 10 HEPES (pH = 7.3). The pipette solution contains (in mM): 140 KCl, 2.5 MgCl2, 11 EGTA, and 10 HEPES (pH = 7.3). Series resistance was kept below 10 MΩ and compensated to 80%. The concentration–response curves were fitted by a Hill logistic equation to estimate the potency (IC50) of the toxin. The whole cell conductance (G) at each depolarizing voltage (V) was determined using the equation: G = I/(V−Vrev), where I and Vrev represents the current amplitude and the reversal potential, respectively. In the present study, Vrev for K^+ current is determined to be −85.61 mV using the Nernst equation. G-V curve was obtained by plotting the normalized G as a function of V and fitted by the Boltzmann equation: y = 1/{1 + exp [(Va−V)/K]}, in which Va, V, and K represents half-maximum activation voltage, test voltage and slope factor, respectively. The steady-state fast inactivation of KV4 channels was measured using a classical two-pulses protocol: cell was held at −120 mV, and a train of conditional voltages (−120–40 mV, in 10 mV increment, 1,000 ms) were applied to induce channel inactivation, followed by a +60 mV test pulse (300 ms) to assess the proportion of non-inactivated channels; the sweep interval was set to 10 s. Currents at the test pulse (I) were normalized to the maximum value (Imax) and plotted as a function of the conditional voltage (V), the curve was fitted by the Boltzmann equation: I/Imax = A + (1−A)/{1 + exp [(V−Vh)/K]}, where Vh is the half-maximum inactivation voltage, A represents the minimum channel availability, and K is the slope factor. Gating currents of KV4.1–4.3 channels were measured as previously reported ([Tilley et al., 2019]). Briefly, the ionic pore currents were abolished by replacing K^+ with NMDG^+ in the pipette solution, and 10 µM Cs^+ was present in the bath solution to occupy the selectivity filter of KV channels to prevent decay of the gating currents during recording.
# (§3) Data were presented as MEAN ± SEM, n represents the number of separate experimental cells. Data were analyzed using the software Clampfit 10.5 (Axon Instruments, Irvine, CA, United States), Graphpad Prism 5.01 (GraphPad Software, La Jolla, CA, United States) and Excel 2010 (Microsoft Corporation, Redmond, WA, United States). […]
# KV4.2 channel (rKV4.2) = target: T1, KV4.2 channel (rKV4.2) (Rattus norvegicus, UniProt Q63881); experiment: Whole-cell patch clamp, KV4.2 (with hKChIP1) in CHO-K1 cells; format: cell-based
# T1 construct: expressed in transfected cells; host or cells: CHO-K1 (transient, co-transfected with pEGFP-N1 and hKChIP1)
# T1 sequence (Q63881 1-630): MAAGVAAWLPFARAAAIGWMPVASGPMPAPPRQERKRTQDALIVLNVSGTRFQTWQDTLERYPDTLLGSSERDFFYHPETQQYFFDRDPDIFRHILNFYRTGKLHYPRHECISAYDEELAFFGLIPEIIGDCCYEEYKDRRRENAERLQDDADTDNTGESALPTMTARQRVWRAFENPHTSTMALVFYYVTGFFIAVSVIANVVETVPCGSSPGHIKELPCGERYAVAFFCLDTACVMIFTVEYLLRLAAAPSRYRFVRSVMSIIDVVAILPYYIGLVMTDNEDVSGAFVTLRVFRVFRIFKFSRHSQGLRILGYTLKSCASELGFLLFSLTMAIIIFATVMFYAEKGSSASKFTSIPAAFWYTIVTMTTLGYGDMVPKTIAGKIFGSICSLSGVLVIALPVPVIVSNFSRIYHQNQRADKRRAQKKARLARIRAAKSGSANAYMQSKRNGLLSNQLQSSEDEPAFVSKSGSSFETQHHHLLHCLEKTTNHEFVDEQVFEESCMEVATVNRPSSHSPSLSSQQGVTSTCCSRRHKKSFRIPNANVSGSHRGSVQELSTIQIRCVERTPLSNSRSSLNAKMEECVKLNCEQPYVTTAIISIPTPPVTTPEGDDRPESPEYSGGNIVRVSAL
# T1 sequence (Q9NZI2 1-227 partner): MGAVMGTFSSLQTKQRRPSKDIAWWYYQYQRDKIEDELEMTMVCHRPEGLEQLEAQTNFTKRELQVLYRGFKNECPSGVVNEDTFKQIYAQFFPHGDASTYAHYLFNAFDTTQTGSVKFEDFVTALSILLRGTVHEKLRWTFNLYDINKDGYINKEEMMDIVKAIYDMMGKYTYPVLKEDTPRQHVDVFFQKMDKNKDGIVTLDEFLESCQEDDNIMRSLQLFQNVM
# Description: as §1, §2, §3
# KV3.4 channel (hKV3.4) = experiment: Whole-cell patch clamp selectivity, KV3.4; format: cell-based, human; details: KV3.4, 10 µM, n = 5
# Description: The cDNA of hKV1.1, hKV1.3, rKV1.4, hKV1.5, rKV2.1, hKV3.1–3.4, mKV4.1, rKV4.2, and rKV4.3 were subcloned in the eukaryotic expression vector pCDNA3.1 or pCMV-blank. Channel mutants were made by a site-directed mutation method. Briefly, a pair of oppositely directed primers with 15 bp overlap at their 5′ ends and the designed mutation site were used to amplify the parental channel plasmid, then the PCR mix was treated with DpnI to remove the template. 10 μL digestion mix was directly used to transform 100 μL DH5α chemical competent cells. The correct mutation made by this procedure was finally confirmed by DNA sequencing. […] 4–6 h after transfection, cells were seeded onto poly-lysine (PLL) coated coverslips, and 24–36 h later, transfected cells were ready for patch-clamp analysis. […]
# Whole-cell patch clamp recording was performed in an electrophysiology platform equipped with MultiClamp 700B amplifier and Axon Digidata 1550 AD/DA convertor (Axon Instruments, Irvine, CA, United States). […] The whole cell conductance (G) at each depolarizing voltage (V) was determined using the equation: G = I/(V−Vrev), where I and Vrev represents the current amplitude and the reversal potential, respectively. In the present study, Vrev for K^+ current is determined to be −85.61 mV using the Nernst equation. […] Gating currents of KV4.1–4.3 channels were measured as previously reported ([Tilley et al., 2019]). […]
# [1] = 10 μM κ-LhTx-1, G-V, mean ± SEM, n = 5
# [2] = 10 μM κ-LhTx-1, two-pulse protocol, mean ± SEM, n = 5
# [3] = 10 μM κ-LhTx-1, KV4.2, G-V, mean ± SEM, n = 8
# [4] = 10 μM κ-LhTx-1, KV4.2, two-pulse protocol, mean ± SEM, n = 6
compound,measurement,setting,value
"CC[C@H](C)[C@@H]1NC(=O)[C@H](CCC(N)=O)NC(=O)[C@@H]2CSSC[C@@H]3NC(=O)[C@H](CC(C)C)NC(=O)[C@H](CC(N)=O)NC(=O)[C@H](CCSC)NC(=O)[C@H](Cc4c[nH]c5ccccc45)NC(=O)[C@H](CO)NC(=O)[C@H](C)NC(=O)[C@@H](NC(=O)[C@H](CCC(=O)O)NC(=O)[C@H](CCC(N)=O)NC(=O)[C@H](C)NC(=O)[C@H](CC(=O)O)NC(=O)[C@@H](N)CCC(=O)O)CSSC[C@H](NC(=O)[C@H](CSSC[C@@H](C(=O)N[C@@H](CCCCN)C(=O)N[C@@H](Cc4ccc(O)cc4)C(=O)N[C@@H](CCCCN)C(=O)N[C@@H](CC(C)C)C(N)=O)NC(=O)[C@H](Cc4c[nH]c5ccccc45)NC1=O)NC(=O)[C@H](CCCCN)NC(=O)[C@H](CCCCN)NC(=O)[C@H](CCC(=O)O)NC(=O)CNC3=O)C(=O)N[C@@H](CCC(=O)O)C(=O)NCC(=O)N[C@@H](Cc1ccc(O)cc1)C(=O)N[C@@H](C(C)C)C(=O)N2 [κ-LhTx-1] (H-EDAQECASWMNLCGEKKCCEGYVCQIWCKYKL-NH2; disulfide 6-19, 13-24, 18-28 (inferred); N-terminus and C-terminus assumed)",∆Va and inhi%(min) vs wild-type KV4.1,KV4.1/K283D mutant; 10 μM,unchanged ∆Va and inhi%(min)
same,Va (steady-state activation),KV4.1/K283D mutant; [1],91.34 ± 3.47 mV
same,"k, slope factor (steady-state activation)",KV4.1/K283D mutant; [1],17.49 ± 1.57 mV
same,Vh (steady-state inactivation),KV4.1/K283D mutant; [2],-36.39 ± 3.03 mV
same,"k, slope factor (steady-state inactivation)",KV4.1/K283D mutant; [2],19.23 ± 1.48 mV
same,potency vs wild-type KV4.1,"KV4.1/K283D mutant; +30 mV, n = 5",only slightly reduced κ-LhTx-1 potency
same,∆Va (steady-state activation),"KV4.1/K283D mutant; Va shift by 10 μM κ-LhTx-1 vs control, mean ± SEM",103.10 ± 4.22 mV
same,∆Vh (steady-state inactivation),"KV4.1/K283D mutant; Vh shift by 10 μM κ-LhTx-1 vs control, mean ± SEM",24.74 ± 3.63 mV
same,Va (steady-state activation),KV4.2 channel (rKV4.2); [3],30.24 ± 1.82 mV
same,"k, slope factor (steady-state activation)",KV4.2 channel (rKV4.2); [3],21.99 ± 0.42 mV
same,Vh (steady-state inactivation),KV4.2 channel (rKV4.2); [4],-69.67 ± 1.87 mV
same,"k, slope factor (steady-state inactivation)",KV4.2 channel (rKV4.2); [4],7.22 ± 0.26 mV
same,reversibility of inhibition,KV4.2 channel (rKV4.2); KV4.2,in a reversible manner
same,voltage-dependence of inhibition,"KV4.2 channel (rKV4.2); KV4.2, 10 µM, inhibition ratio at each depolarizing voltage, n = 5–8",decreased quickly with the increment of the depolarizing voltage
same,I-V relationship shift,"KV4.2 channel (rKV4.2); KV4.2, 10 µM, n = 5–8",only a small shift
same,current inhibition at Va,KV4.2 channel (rKV4.2); KV4.2 at Va depolarizing voltage,almost fully inhibited
same,∆Va (steady-state activation),"KV4.2 channel (rKV4.2); Va shift by 10 μM κ-LhTx-1 vs control, KV4.2, mean ± SEM",39.52 ± 2.55 mV
same,effect on currents,KV3.4 channel (hKV3.4),did not remarkably affect the currents
